# Source: PubChem BioAssay AID1963871 (Molecular Pharmacology Branch, DTP, NCI, 2024)
# Tested on: KRAS-mutant PDC multicell tumor spheroid viability
# Experiment: Anticancer human tumor 521955-158-R2-J5-PDC patient-derived pancreatic carcinoma cell line growth inhibition [KRAS2]
# Conditions: for viability, T/C: stronger effect = lower value
# Text: Multicellular complex tumor spheroid response to RAS pathway inhibitors in combination with a targeted agents in patient-derived cell lines with oncogenic KRAS variants from multiple cancer types
# A high-throughput screen of multi-cell type tumor spheroids was designed to identify active combinations of targeted small molecules and KRAS pathway inhibitors. Complex spheroids include a stromal component modeled by human endothelial cells (HUVEC) and fibroblasts modeled by human mesenchymal stem cells (MSCs). The concentration ranges selected for each drug and investigational agent were based upon clinically achievable concentrations if the clinical Cmax of the agent was known.
# Compounds. The drugs and investigational agents: BI-3406 (NSC825286), BAY-293 (NSC824723), batoprotafib (TNO155; NSC825523), sotorasib (AMG 510; NSC818433), MRTX1257 (NSC819558), elimusertib (BAY 1895344; NSC800525), molibresib (GSK525762; NSC774829), temuterkib (LY3214996; NSC803410), venetoclax (NSC766270), alisertib (NSC759677), olaparib (NSC753686), talazoparib (NSC767125), erdafitinib (NSC781556), ipatasertib (NSC767898), cabozantinib (NSC761068), nintedanib (NSC756659), abemaciclib (NSC768073), docetaxel (NSC628503), trametinib (NSC758246), and sapanisertib (NSC764658) were obtained from the National Cancer Institute (NCI) Developmental Therapeutics Program Chemical Repository. The FDA-approved anticancer drug set is available from the Developmental Therapeutics Program. […] The stock solutions were prepared in dimethyl sulfoxide (DMSO, Sigma-Aldrich, St. Louis, MO, cat. D2650) at 800-fold the tested concentration and stored at -70 degrees C prior to their use. All drugs and investigational agents were tested over a range starting from a high concentration at or near the clinical Cmax and decreasing in half-log increments. If the clinical Cmax for an agent had not been determined, the highest concentration tested was 10 microM.
# Cell Culture. All cells were maintained in an incubator at 37 degrees C and 5% CO2 with 95% humidity. The PDC lines were cultured according to standard operating procedures established by the NCI PDMR (https://pdmr.cancer.gov/sops/default.htm). Briefly, all PDCs were thawed and cultured in Matrigel-coated flasks prepared with a working solution of 1X Ham's F-12 nutrient mix, without supplementation (Invitrogen, Waltham, MA, cat. 11765054), 100 U/mL penicillin-streptomycin (Invitrogen, cat. 15140122), and 2.5% Matrigel (Corning Inc., Corning, NY, cat. 354248) for the first three passages. All PDCs were cultured in complete DMEM/F-12 media containing advanced DMEM/F-12 (Invitrogen, cat. 12634028), 4.9% defined fetal bovine serum, heat inactivated (HyClone Laboratories Inc., Logan, UT, cat. SH30070.03HI), 389 ng/mL hydrocortisone (Sigma-Aldrich, cat. H4001), 9.7 ng/mL human EGF recombinant protein (Invitrogen, cat. PHG0313), 23.4 microg/mL adenine (Sigma-Aldrich, cat. A2786), 97.3 U/mL penicillin-streptomycin (Invitrogen, cat. 15140122), 1.9 mM L-glutamine (Invitrogen, cat. 25030081), and 9.7 microM Y-27632 dihydrochloride (Tocris Bioscience, Bristol, United Kingdom, cat. 1254). The PDCs were cultured in complete DMEM/F12 media without 9.7 microM Y-27632 dihydrochloride for at least two passages prior to the screen. The established cell line HOP-62 was cultured in RPMI 1640 medium, HEPES (Invitrogen, cat. 22400105) with 10% defined fetal bovine serum (HyClone Laboratories Inc., cat. SH30070.03) and 2 mM L-glutamine (Invitrogen, cat. 25030081). The pooled donor HUVEC were cultured in endothelial cell growth medium 2 (PromoCell, Heidelberg, Germany, cat. C-22011) and the hMSC were cultured in mesenchymal stem cell growth medium 2 (PromoCell, cat. C-28009). For all experiments, HUVEC and hMSC were used at passages </=5, while the malignant cell lines were used at passages </=15. […]
# [1] = curve of first compound, second compound 0.1 µM
# [2] = curve of first compound, second compound 0.316 µM
# [3] = curve of first compound, second compound 1 µM
# [4] = curve of first compound, second compound 3.16 µM
# [5] = curve of first compound, second compound 10 µM
# [6] = second compound 0.1 µM, first compound 0.0316 µM
# [7] = second compound 0.1 µM, first compound 0.1 µM
# [8] = second compound 0.1 µM, first compound 0.316 µM
# [9] = second compound 0.1 µM, first compound 1 µM
# [10] = second compound 0.1 µM, first compound 3.16 µM
# [11] = second compound 0.1 µM, first compound 10 µM
# [12] = second compound 0.316 µM, first compound 0.0316 µM
# [13] = second compound 0.316 µM, first compound 0.1 µM
# [14] = second compound 0.316 µM, first compound 0.316 µM
# [15] = second compound 0.316 µM, first compound 1 µM
# [16] = second compound 0.316 µM, first compound 3.16 µM
# [17] = second compound 0.316 µM, first compound 10 µM
# [18] = second compound 1 µM, first compound 0.0316 µM
# [19] = second compound 1 µM, first compound 0.1 µM
# [20] = second compound 1 µM, first compound 0.316 µM
# [21] = second compound 1 µM, first compound 1 µM
# [22] = second compound 1 µM, first compound 3.16 µM
# [23] = second compound 1 µM, first compound 10 µM
# [24] = second compound 3.16 µM, first compound 0.0316 µM
# [25] = second compound 3.16 µM, first compound 0.1 µM
# [26] = second compound 3.16 µM, first compound 0.316 µM
# [27] = second compound 3.16 µM, first compound 1 µM
# [28] = second compound 3.16 µM, first compound 3.16 µM
# [29] = second compound 3.16 µM, first compound 10 µM
# [30] = second compound 10 µM, first compound 0.0316 µM
# [31] = second compound 10 µM, first compound 0.1 µM
# [32] = second compound 10 µM, first compound 0.316 µM
# [33] = second compound 10 µM, first compound 1 µM
# [34] = second compound 10 µM, first compound 3.16 µM
# [35] = second compound 10 µM, first compound 10 µM
# 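Further: viability read after seven days of drug exposure.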
smiles,measurement,setting,value
COc1cc2nccc(Oc3ccc(NC(=O)C4(C(=O)Nc5ccc(F)cc5)CC4)cc3)c2cc1OC + CNCc1ccccc1-c1csc(C(C)Nc2nc(C)nc3cc(OC)c(OC)cc23)c1,IC50,[1],6.77 µM
same,IC50,[2],6.2 µM
same,IC50,[3],3.7 µM
same,IC50,[4],< 0.0316 µM
same,IC50,[5],< 0.0316 µM
same,"viability, T/C",[6],92.7%
same,"viability, T/C",[7],94.2%
same,"viability, T/C",[8],94.5%
same,"viability, T/C",[9],92.2%
same,"viability, T/C",[10],70.7%
same,"viability, T/C",[11],39.4%
same,"viability, T/C",[12],94.6%
same,"viability, T/C",[13],101%
same,"viability, T/C",[14],95.9%
same,"viability, T/C",[15],115%
same,"viability, T/C",[16],75.7%
same,"viability, T/C",[17],31.9%
same,"viability, T/C",[18],98.8%
same,"viability, T/C",[19],99.9%
same,"viability, T/C",[20],114%
same,"viability, T/C",[21],99.6%
same,"viability, T/C",[22],57.7%
same,"viability, T/C",[23],2.02%
same,"viability, T/C",[24],0.62%
same,"viability, T/C",[25],0.34%
same,"viability, T/C",[26],0.41%
same,"viability, T/C",[27],0.52%
same,"viability, T/C",[28],0.39%
same,"viability, T/C",[29],0.4%
same,"viability, T/C",[30],0.2%
same,"viability, T/C",[31],0.12%
same,"viability, T/C",[32],0.63%
same,"viability, T/C",[33],0.12%
same,"viability, T/C",[34],0.23%
same,"viability, T/C",[35],0.19%
CN(C)C/C=C/C(=O)Nc1cc2c(Nc3ccc(F)c(Cl)c3)ncnc2cc1O[C@H]1CCOC1 + C=CC(=O)N1CCN(c2nc(OCC3CCCN3C)nc3c2CCN(c2cccc4cccc(C)c24)C3)CC1CC#N,IC50,"curve of first compound, second compound 0.0316 µM",> 0.1 µM
same,IC50,[1],> 0.1 µM
same,IC50,[2],> 0.1 µM
same,IC50,[3],> 0.1 µM
same,IC50,[4],< 0.000316 µM
same,"viability, T/C","second compound 0.0316 µM, first compound 0.000316 µM",97.5%
same,"viability, T/C","second compound 0.0316 µM, first compound 0.001 µM",104%
same,"viability, T/C","second compound 0.0316 µM, first compound 0.00316 µM",75.7%
same,"viability, T/C","second compound 0.0316 µM, first compound 0.01 µM",73.5%
same,"viability, T/C","second compound 0.0316 µM, first compound 0.0316 µM",67.9%
same,"viability, T/C","second compound 0.0316 µM, first compound 0.1 µM",65.6%
same,"viability, T/C","second compound 0.1 µM, first compound 0.000316 µM",83.5%
same,"viability, T/C","second compound 0.1 µM, first compound 0.001 µM",89.3%
same,"viability, T/C","second compound 0.1 µM, first compound 0.00316 µM",98.8%
same,"viability, T/C","second compound 0.1 µM, first compound 0.01 µM",70.5%
same,"viability, T/C",[6],76.7%
same,"viability, T/C",[7],72.4%
same,"viability, T/C","second compound 0.316 µM, first compound 0.000316 µM",77.8%
same,"viability, T/C","second compound 0.316 µM, first compound 0.001 µM",73.2%
same,"viability, T/C","second compound 0.316 µM, first compound 0.00316 µM",65.9%
same,"viability, T/C","second compound 0.316 µM, first compound 0.01 µM",56.7%
same,"viability, T/C",[12],54.7%
same,"viability, T/C",[13],53.6%
same,"viability, T/C","second compound 1 µM, first compound 0.000316 µM",73.5%
same,"viability, T/C","second compound 1 µM, first compound 0.001 µM",85.1%
same,"viability, T/C","second compound 1 µM, first compound 0.00316 µM",70.4%
same,"viability, T/C","second compound 1 µM, first compound 0.01 µM",65.1%
same,"viability, T/C",[18],58.8%
same,"viability, T/C",[19],54.4%
same,"viability, T/C","second compound 3.16 µM, first compound 0.000316 µM",4.17%
same,"viability, T/C","second compound 3.16 µM, first compound 0.001 µM",3.27%
same,"viability, T/C","second compound 3.16 µM, first compound 0.00316 µM",1.28%
same,"viability, T/C","second compound 3.16 µM, first compound 0.01 µM",1.27%
same,"viability, T/C",[24],0.96%
same,"viability, T/C",[25],0.29%
Cn1nccc1Nc1nccc(-c2cc3c(s2)C(C)(C)N(CCN2CCOCC2)C3=O)n1,"viability, T/C",compound 0.0316 µM,91.2% [middle of 5 runs]
same,"viability, T/C",compound 0.1 µM,86.3% [middle of 5 runs]
same,"viability, T/C",compound 0.316 µM,60.6% [middle of 5 runs]
same,"viability, T/C",compound 1 µM,51% [middle of 5 runs]
same,"viability, T/C",compound 3.16 µM,32.7% [middle of 5 runs]
same,"viability, T/C",compound 10 µM,22.6% [middle of 5 runs]
same,IC50,curve of compound,902 nM [middle of 5 runs]
O=C(c1cc(Cc2n[nH]c(=O)c3ccccc23)ccc1F)N1CCN(C(=O)C2CC2)CC1 + CNCc1ccccc1-c1csc(C(C)Nc2nc(C)nc3cc(OC)c(OC)cc23)c1,IC50,[1],> 10 µM
same,IC50,[2],> 10 µM
same,IC50,[3],> 10 µM
same,IC50,[4],< 0.0316 µM
same,IC50,[5],< 0.0316 µM
same,"viability, T/C",[6],93.9%
same,"viability, T/C",[7],106%
same,"viability, T/C",[8],91%
same,"viability, T/C",[9],88.3%
same,"viability, T/C",[10],72.7%
same,"viability, T/C",[11],55.7%
same,"viability, T/C",[12],86.7%
same,"viability, T/C",[13],100%
same,"viability, T/C",[14],94.5%
same,"viability, T/C",[15],88.8%
same,"viability, T/C",[16],72.1%
same,"viability, T/C",[17],54.3%
same,"viability, T/C",[18],92.3%
same,"viability, T/C",[19],98.1%
same,"viability, T/C",[20],99.6%
same,"viability, T/C",[21],94.5%
same,"viability, T/C",[22],70.7%
same,"viability, T/C",[23],51.9%
same,"viability, T/C",[24],0.34%
same,"viability, T/C",[25],0.17%
same,"viability, T/C",[26],0.17%
same,"viability, T/C",[27],0.65%
same,"viability, T/C",[28],0.18%
same,"viability, T/C",[29],0.2%
same,"viability, T/C",[30],0.16%
same,"viability, T/C",[31],0.14%
same,"viability, T/C",[32],0.16%
same,"viability, T/C",[33],0.16%
same,"viability, T/C",[34],0.18%
same,"viability, T/C",[35],0.23%
CNCc1ccccc1-c1csc(C(C)Nc2nc(C)nc3cc(OC)c(OC)cc23)c1 (configuration not stated),"viability, T/C",compound 0.1 µM,93.3% [middle of 17 runs]
same,"viability, T/C",compound 0.316 µM,93.4% [middle of 17 runs]
same,"viability, T/C",compound 10 µM,0.16% [middle of 15 runs]
same,IC50,"compound alone, run of 08/26/2021",1.68 µM [middle of 5 runs]
same,IC50,"compound alone, run of 09/02/2021",1.82 µM [middle of 6 runs]
